The target of series [1] is Tyrosine-protein kinase JAK1 (Homo sapiens, UniProt P23458). In kind it is cell-based.
Series [2] can be described thus: physchem. To be noted: buffer, pH 7.4.
For series [3], the target named is Non-receptor tyrosine-protein kinase TYK2 (Homo sapiens, UniProt P29597). In kind it is cell-based.
The next series in a line: in vitro. To be noted: PAMPA, pH 7.4. For orientation: In PAMPA a lipid-coated filter parts donor from acceptor wells.
For a further series, the target named is Aurora kinase B (Homo sapiens, UniProt Q96GD4).
A short description of series [4]: physchem. Conditions: buffer, pH 6.5.
Description: Solubility of the compound in stimulated lung fluid at pH 6.5 measured after 4 hrs by HPLC-UV analysis

Structures are written as SMILES. Converted amounts (≈) assume the structure as drawn.

Chain of Tyrosine-protein kinase JAK1 (P23458 whole entry): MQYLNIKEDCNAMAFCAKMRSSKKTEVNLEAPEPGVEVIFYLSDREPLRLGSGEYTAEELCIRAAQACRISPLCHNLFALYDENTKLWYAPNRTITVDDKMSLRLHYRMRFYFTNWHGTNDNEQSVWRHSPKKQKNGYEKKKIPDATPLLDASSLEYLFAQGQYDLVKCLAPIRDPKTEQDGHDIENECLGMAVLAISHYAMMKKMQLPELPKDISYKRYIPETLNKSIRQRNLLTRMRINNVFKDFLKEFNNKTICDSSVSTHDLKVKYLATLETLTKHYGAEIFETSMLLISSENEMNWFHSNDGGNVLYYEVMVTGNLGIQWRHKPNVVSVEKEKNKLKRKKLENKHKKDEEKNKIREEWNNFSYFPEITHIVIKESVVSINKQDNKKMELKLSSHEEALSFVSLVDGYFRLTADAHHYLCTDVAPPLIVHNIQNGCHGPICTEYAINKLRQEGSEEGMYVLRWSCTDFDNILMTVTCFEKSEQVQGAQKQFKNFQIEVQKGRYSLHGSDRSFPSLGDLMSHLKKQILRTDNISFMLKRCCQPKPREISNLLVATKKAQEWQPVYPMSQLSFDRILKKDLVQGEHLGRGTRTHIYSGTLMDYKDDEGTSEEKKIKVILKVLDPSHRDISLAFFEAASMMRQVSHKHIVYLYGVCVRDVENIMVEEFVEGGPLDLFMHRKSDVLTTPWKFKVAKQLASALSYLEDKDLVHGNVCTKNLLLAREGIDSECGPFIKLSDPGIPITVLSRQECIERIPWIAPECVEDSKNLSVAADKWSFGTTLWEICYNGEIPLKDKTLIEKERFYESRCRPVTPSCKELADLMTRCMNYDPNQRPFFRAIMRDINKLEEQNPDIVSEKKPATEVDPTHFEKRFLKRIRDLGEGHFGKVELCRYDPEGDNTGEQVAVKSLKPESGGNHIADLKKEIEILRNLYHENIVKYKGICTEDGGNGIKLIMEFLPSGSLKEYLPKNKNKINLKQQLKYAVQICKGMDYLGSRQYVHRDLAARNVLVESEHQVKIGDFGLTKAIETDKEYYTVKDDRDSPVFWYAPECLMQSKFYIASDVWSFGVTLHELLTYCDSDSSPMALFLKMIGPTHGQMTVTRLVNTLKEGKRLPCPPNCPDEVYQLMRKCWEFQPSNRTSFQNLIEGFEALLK
Chain of Non-receptor tyrosine-protein kinase TYK2 (P29597 whole entry): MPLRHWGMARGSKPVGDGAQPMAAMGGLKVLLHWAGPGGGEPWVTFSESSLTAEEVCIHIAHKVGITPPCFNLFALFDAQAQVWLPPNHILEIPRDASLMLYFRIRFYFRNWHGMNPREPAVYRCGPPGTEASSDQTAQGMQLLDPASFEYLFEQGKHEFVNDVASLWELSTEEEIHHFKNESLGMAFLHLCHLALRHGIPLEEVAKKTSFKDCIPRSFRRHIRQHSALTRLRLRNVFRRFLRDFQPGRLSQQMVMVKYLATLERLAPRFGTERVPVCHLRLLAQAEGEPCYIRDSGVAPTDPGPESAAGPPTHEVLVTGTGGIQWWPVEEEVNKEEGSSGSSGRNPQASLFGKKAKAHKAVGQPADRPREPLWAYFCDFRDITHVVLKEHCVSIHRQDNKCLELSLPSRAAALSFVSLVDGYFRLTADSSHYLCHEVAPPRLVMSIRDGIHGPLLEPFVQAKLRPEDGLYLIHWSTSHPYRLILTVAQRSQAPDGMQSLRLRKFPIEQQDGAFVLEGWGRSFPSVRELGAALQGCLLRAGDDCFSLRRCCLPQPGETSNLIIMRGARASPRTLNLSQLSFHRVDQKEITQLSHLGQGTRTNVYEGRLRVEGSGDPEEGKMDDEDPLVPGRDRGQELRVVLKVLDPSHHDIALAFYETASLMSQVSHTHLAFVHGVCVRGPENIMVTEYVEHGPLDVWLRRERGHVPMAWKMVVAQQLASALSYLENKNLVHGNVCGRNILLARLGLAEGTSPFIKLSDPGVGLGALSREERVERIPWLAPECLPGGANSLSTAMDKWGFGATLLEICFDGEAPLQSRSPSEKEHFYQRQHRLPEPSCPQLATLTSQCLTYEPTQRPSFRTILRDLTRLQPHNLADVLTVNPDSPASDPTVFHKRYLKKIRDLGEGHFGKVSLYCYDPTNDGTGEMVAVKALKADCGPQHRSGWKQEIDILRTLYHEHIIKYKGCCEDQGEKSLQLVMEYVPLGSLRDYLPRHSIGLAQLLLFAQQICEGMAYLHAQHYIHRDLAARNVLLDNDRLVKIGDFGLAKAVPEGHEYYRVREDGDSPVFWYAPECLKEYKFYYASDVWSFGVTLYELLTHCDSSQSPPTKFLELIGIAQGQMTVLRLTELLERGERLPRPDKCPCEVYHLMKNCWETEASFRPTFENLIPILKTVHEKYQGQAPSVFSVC
Chain of Aurora kinase B (Q96GD4 whole entry): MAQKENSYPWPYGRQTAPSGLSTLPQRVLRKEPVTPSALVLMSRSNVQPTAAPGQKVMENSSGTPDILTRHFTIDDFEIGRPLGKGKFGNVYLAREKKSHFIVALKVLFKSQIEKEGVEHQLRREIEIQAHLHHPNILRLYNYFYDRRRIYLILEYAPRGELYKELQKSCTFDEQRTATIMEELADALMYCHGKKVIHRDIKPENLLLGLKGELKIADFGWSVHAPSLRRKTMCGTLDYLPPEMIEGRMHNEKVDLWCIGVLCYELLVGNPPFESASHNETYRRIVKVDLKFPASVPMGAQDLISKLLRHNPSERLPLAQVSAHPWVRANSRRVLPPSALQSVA
Description for in vitro: Permeability of the compound at pH 7.4 incubated for 3 hrs by HPLC based artificial membrane permeability assay

Turning to `Cn1cc(Nc2ncc3cccc(OC4CCNCC4)c3n2)cn1`, 79.4 nM corresponded to half-maximal inhibition in series [1] (IC50). Moreover, the kinetic solubility (as a rule, the concentration staying in solution when a stock, usually in DMSO, is diluted into the medium) at 1 h in “physchem [2]” was 523 µM (≈ 170 µg/mL).

For `COc1cccc2cnc(Nc3cnn(C)c3)nc12`, the IC50 in series [1] and in series [3] was 631 nM each time. The same compound showed a kinetic solubility at 1 h in “physchem [2]” of 539 µM (≈ 138 µg/mL).

For the compound `CC(=O)N1CCC(Oc2cccc3cnc(Nc4cnn(C)c4)nc23)CC1`, the IC50 (usually the midpoint of a concentration-inhibition curve) was 251 nM in series [1] and 316 nM in series [3]. Besides, the kinetic solubility at 1 h in “physchem [2]” came out at 557 µM (≈ 204 µg/mL).

On to `CCc1cc(O)c(F)cc1-c1cc(NCCNC)c2nc(N)ncc2c1`, for which the Papp (commonly the rate of passage across a membrane or cell layer, normalised by area and donor concentration) at 3 h in “in vitro” stood at 1.2 ×10⁻⁶ cm/s. For the same compound, at Aurora kinase B, the IC50 is 12600 nM.

`CCc1cc(O)c(F)cc1-c1cc(NCCO)c2nc(N)ncc2c1` returned a Papp at 3 h in the series “in vitro” of 12 ×10⁻⁶ cm/s. Also, in “physchem [4]”, the solubility (commonly how much of the substance goes into solution per volume) at 4 h stood at 44 µg/mL (≈ 129 µM).

For `CC(=O)N1CCC(Nc2cccc3cnc(Nc4cnn(C)c4)nc23)CC1`, in series [1], half-maximal inhibition (IC50) required 126 nM. This compound yielded a kinetic solubility at 1 h in “physchem [2]” of 404 µM (≈ 148 µg/mL).

For the compound `COc1cc(-c2ccc(O)cc2)cc2cnc(Nc3cnn(C)c3)nc12`, in series [1], the IC50 is 0.501 nM. For the same compound, the kinetic solubility at 1 h in “physchem [2]” amounted to 11 µM (≈ 3.82 µg/mL).

(Values after ChEMBL document CHEMBL5046242, “Investigation of Janus Kinase (JAK) Inhibitors for Lung Delivery and the Importance of Aldehyde Oxidase Metabolism” (J Med Chem, 2022).)
